Laboratory results published in patent US20230210116A1, “HONEYBEE REPELLENT” (EARTH CORPORATION, priority 2020, published 2023).
Counter-ions that a name gives are not always drawn.

What was measured:
honeybees = experiment: Test for Confirmation of Honeybee Repelling Effect 1, 2, 3 (feeding station with 40% sugar water); assay type: in vivo; settings: for Corrected repelling rate (%) Honeybees: Test 3, 5 mL
Excerpt: The following were used as the test samples for Examples: 2% by weight per volume ethanol solutions of octane (a-1), tetradecane (a-2), heptadecane (a-3), nonadecane (a-4), 2-acetylfuran (b-1), 5-methyl-2-furaldehyde (b-2), furfural (b-3), furaneol (c-1), 2-acetylpyrrole (d-1), 1-benzylpyrrole (d-2), 1-octanol (e-1), 1-dodecanol (e-2), and 1-octadecanol (e-3), respectively; and 2% by weight per volume aqueous solutions of furfuryl alcohol (b-4), sotolon (c-2), and α-angelicalactone (c-3), respectively.
The following were used as the test samples for Comparative Examples: 2% by weight per volume ethanol solutions of eicosane (carbon number 20, p-1), heneicosane (carbon number 21, p-2), 2-methyloctane (branched alkane, p-3), tributyl o-acetylcitrate (p-4), and 1-methylpyrrole (p-5), respectively; and 2% by weight per volume aqueous solutions of 2-methyltetrahydrofuran-3-one (p-6) and acetic acid (p-7), respectively.
Ethanol alone and water alone were used as samples for correction.
The cotton pads 13 were impregnated with 40% sugar water (80 g), after which disposable wooden chopsticks 15 (80 mm in length) were placed over the cotton pads on the lid surface as “landing areas,” for use as “test insect (honeybee) feeding station 1” 10.
A nest box of test insects (honeybees) (1 colony: approx. 6,000 bees) was placed at the center of a glass hothouse (bottom face: 5 m×10 m, height (highest part): 3 m, temperature: 25° C.), and the aforementioned “test insect (honeybee) feeding station 1” was installed at a location 2 meters away from the nest box.
After confirming that at least five test insects (honeybees) were feeding at the above “test insect (honeybee) feeding station 1” installed in the hothouse, test 1 was conducted to measure the “approaching count (Mz)” and “landing count (My)” and calculate the “landing rate (Mx).”
Next, the “test insect (honeybee) feeding station 1” installed in the hothouse was replaced with each “test insect (honeybee) feeding station 2” which was let to stand still for 5 minutes, after which test 2 was conducted to measure the “approaching count (Nz)” and “landing count (Ny)” and calculate the “landing rate (Nx).”
Approaching count: Total number of times a honeybee has approached within 25 cm of the cotton wools at the feeding station during 5 minutes
Landing count: Total number of honeybees that have remained for at least 1 second on the cotton pads at the feeding station during 5 minutes
Landing rate (%): (Landing count/Approaching count)×100
The “repelling rate Q” and “corrected repelling rate R” were calculated from the above “landing rates” using the calculation formula below. For the “repelling rate of sample for correction” used to calculate the “corrected repelling rate R,” the repelling rate of each of the samples for correction above (ethanol alone or water alone being a solvent for the active ingredient) was used.
Repelling rate Q (%)={(Mx)−(Nx)}/(Mx)×100
Corrected repelling rate R (%)={Repelling rate of test sample−Repelling rate of sample for correction}/{100−Repelling rate of sample for correction}×100
The following were used as the test samples for Examples: 0.1% by weight per volume ethanol solutions of 3-methyl-2-butanol (e-4), carvacrol (x-1), isoeugenol (x-2), cinnamyl alcohol (x-3), diacetone alcohol (x-4), α-amylcinnamaldehyde (x-5), 3-methyl-2-butenal (x-6), valeraldehyde (x-7), ethyl cinnamate (x-8), methyl cinnamate (x-9), ethyl isovalerate (x-10), isoamyl formate (x-11), 5-ethyl-2-methylpyridine (x-12), 2-(3-phenylpropyl)pyridine (x-13), 2,6-dimethylpyridine (x-14), ß-ionone (x-15), 2-acetylthiazole (x-16), butylamine (x-17), and citronella oil (x-18), respectively; and a 0.1% by weight per volume aqueous solution of (3-amino-3-carboxypropyl)dimethylsulfonium chloride (x-19).

stink bugs = experiment: Test for Confirmation of Stink Bug Behaviors against Active Ingredients 1, 2, 3 (treated filter paper); assay type: in vivo, southern green stink bugs
Excerpt: The test samples in “Test for Confirmation of Honeybee Repelling Effect 1” above were used.
A liquid calcium carbonate/ethanol dispersion was applied on the entire interior wall of a KP cup (100 mm in diameter×90 mm in height) and air-dried, after which a filter paper (90 mm in diameter) was fixed on the bottom face of the KP cup using double-sided tape. A different filter paper (90 mm in diameter) was cut along its diameter and the resulting semicircle-shaped paper was uniformly treated with 400 μL of each test sample or sample for correction, and then placed over the filter paper fixed on the aforementioned bottom face of the KP cup by allowing the circular parts to overlap, for use as a testing device.
The “repelling rate Y” and “corrected repelling rate Z” were calculated from the above “time A (sec)” and “time B (sec)” using the calculation formula below. For the “repelling rate of sample for correction” used to calculate the “corrected repelling rate Z,” the repelling rate of each of the samples for correction above (ethanol alone or water alone being a solvent for the active ingredient) was used.
Corrected repelling rate Z (%)={Repelling rate of test sample−Repelling rate of sample for correction}/{100−Repelling rate of sample for correction}×100
For the test samples, the test samples in “Test for Confirmation of Honeybee Repelling Effect 2” above were used.

[1] = Test 2, honeybees, 0.1% by weight per volume solution, 5 mL (active ingredient 5 mg)
[2] = Test 2, 0.1% by weight per volume solution, 400 μL
[3] = 0.1% by weight per volume solution
[4] = Test 3, 0.1% by weight per volume solution, 400 μL
[5] = Test 1, honeybees, 2% by weight per volume solution, 5 mL sprayed (active ingredient 0.1 g)
[6] = Test 1, 2% by weight per volume solution, 400 μL on filter paper, 30 minutes
[7] = Test 1, 2% by weight per volume solution

| Structure (SMILES) | Corrected repelling rate (%) Honeybees (honeybees; [3]) | repelling of stink bugs and other injurious insects to be exterminated (in words) (stink bugs) | Corrected repelling rate (%) Stinkbugs (stink bugs; [4]) | further results |
| --- | --- | --- | --- | --- |
| CCc1ccc(C)nc1 [x-12, 5-ethyl-2-methylpyridine] |  |  |  | Corrected repelling rate R (%) (honeybees; [1]): 72.4%; Corrected repelling rate (%) Stinkbugs (stink bugs; [2]): <0% |
| c1ccc2cnccc2c1 [y-79, isoquinoline] | 92.3% | not repelling stink bugs | ∘ |  |
| CC(C)=CCO [e-8, 3-methyl-2-buten-1-ol] | 30.4% |  | ∘ |  |
| C=CCCCCCCCCC(=O)OCC [y-39, ethyl 10-undecenoate] | 75.8% | not repelling stink bugs | ∘ |  |
| OCc1ccco1 [b-4, furfuryl alcohol] |  |  |  | Corrected repelling rate R (%) (honeybees; 2 % strength): 94.8%; Corrected repelling rate (%) Stinkbugs (stink bugs; 0.5 h, 2 % strength): <0% |
| CCC(=O)Oc1c(C)occc1=O [y-96, maltol propionate] | 57.5% | not repelling stink bugs | ∘ |  |
| CC(=O)c1ccco1 [b-1, 2-acetylfuran] |  |  |  | Corrected repelling rate R (%) (honeybees; [5]): 60.3%; Corrected repelling rate (%) Stinkbugs (stink bugs; [6]): <0% |
| CCCCCCCC [a-1, octane] |  |  |  | repelling effect / repelled behaviors of honeybees (in words) (honeybees; [7]): excellent repelling effect; Corrected repelling rate R (%) (honeybees; [5]): 57.0%; Corrected repelling rate (%) Stinkbugs (stink bugs; [6]): <0% |
| COC(=O)c1ccccc1N [y-33, methyl anthranilate] | 51.0% | not repelling stink bugs | ∘ |  |
| CCOC(=O)CC(C)(C)C [y-42, ethyl tert-butylacetate] | 27.7% |  | ∘ |  |
| c1ccc(-c2nc3ccccc3nc2-c2ccccc2)cc1 [y-84, 2,3-diphenylquinoxaline] | 75.8% | not repelling stink bugs | ∘ |  |
| c1ccc2ncccc2c1 [y-81, quinoline] | 80.2% | not repelling stink bugs | ∘ |  |
| CC/C=C/C=O [y-10, trans-2-pentenal] | 55.4% | not repelling stink bugs | ∘ |  |
| CCCCC(CC)COC(=O)c1ccccc1O (stereo not shown) [y-22, 2-ethylhexyl salicylate] | 23.7% |  | ∘ |  |
| COc1cc(C=O)ccc1O [y-7, vanillin] | 61.2% | not repelling stink bugs | ∘ |  |
| CC(C)=CCC/C(C)=C/COC=O [y-28, geranyl formate] | 98.0% | not repelling stink bugs | ∘ |  |

| Structure (SMILES) | Corrected repelling rate (%) Honeybees (honeybees; [3]) | repelling of stink bugs and other injurious insects to be exterminated (in words) (stink bugs) | Corrected repelling rate (%) Stinkbugs (stink bugs; [4]) | further results |
| --- | --- | --- | --- | --- |
| C1CCNC1 [y-91, pyrrolidine] | 61.2% |  |  | Corrected repelling rate (%) Stinkbugs (stink bugs; 0.5 h, 0.1 % strength): x (“x” for rates “not <0”) |
| CC1=C(O)C(=O)C(C)O1 (stereo not shown) [c-1, furaneol] |  |  |  | Corrected repelling rate R (%) (honeybees; [5]): 44.0%; Corrected repelling rate (%) Stinkbugs (stink bugs; [6]): <0% |
| CCCCCCCCCCCC(=O)OCC [y-41, ethyl laurate] | 59.6% | not repelling stink bugs | ∘ |  |
| CC(C)CC=O [y-14, isovaleraldehyde] | 65.5% | not repelling stink bugs | ∘ |  |
| CC(C)C(C)O (stereo not shown) [e-4, 3-methyl-2-butanol] |  |  |  | Corrected repelling rate R (%) (honeybees; [1]): 17.7%; Corrected repelling rate (%) Stinkbugs (stink bugs; [2]): <0% |
| C=CCOC(=O)CCCCC [y-49, allyl hexanoate] | 33.5% |  | ∘ |  |
| CCOc1cc(C=O)ccc1O [y-6, ethyl vanillin] | 60.3% |  |  | Corrected repelling rate (%) Stinkbugs (stink bugs; 0.5 h, 0.1 % strength): x (“x” for rates “not <0”) |
| CCc1occc(=O)c1O [y-95, ethyl maltol] | 27.6% |  | ∘ |  |
| c1coc(Cn2cccc2)c1 [d-3, 1-furfurylpyrrole] | 25.4% |  | ∘ |  |
| Cc1ccc(C(C)C)cc1O [x-1, carvacrol] |  |  |  | Corrected repelling rate R (%) (honeybees; [1]): 80.6%; Corrected repelling rate (%) Stinkbugs (stink bugs; [2]): <0% |
| Cc1cccc(C)n1 [x-14, 2,6-dimethylpyridine] |  |  |  | Corrected repelling rate R (%) (honeybees; [1]): 50.0%; Corrected repelling rate (%) Stinkbugs (stink bugs; [2]): <0% |
| CC(=O)OC/C=C(\C)CCC=C(C)C [y-27, geranyl acetate] | 68.0% | not repelling stink bugs | ∘ |  |
| CC1=C(O)C(=O)OC1C (stereo not shown) [c-2, sotolon] |  |  |  | repelling effect / repelled behaviors of honeybees (in words) (honeybees; [7]): excellent repelling effect; Corrected repelling rate R (%) (honeybees; [5]): 79.7%; Corrected repelling rate (%) Stinkbugs (stink bugs; [6]): <0% |
| C[S+](C)CCC(N)C(=O)O.[Cl-] (stereo not shown) [x-19, (3-amino-3-carboxypropyl)dimethylsulfonium chloride] |  |  |  | Corrected repelling rate R (%) (honeybees; [1]): 40.9%; Corrected repelling rate (%) Stinkbugs (stink bugs; [2]): <0% |
| CCCCOC(C)=O [y-46, butyl acetate] | 40.2% |  |  | Corrected repelling rate (%) Stinkbugs (stink bugs; 0.5 h, 0.1 % strength): x (“x” for rates “not <0”) |
| CC(=O)OCC=Cc1ccccc1 [y-18, cinnamyl acetate] | 69.0% | not repelling stink bugs | ∘ |  |
